Data: patent publication US20240165281A1, “DUAL MODE RADIOTRACER AND THERAPEUTICS” (Technische Universität München, priority 2021, published 2024)

Key:
[1] = target: T1, Human Serum Albumin (HSA) (Homo sapiens, UniProt P02768); assay: Human serum albumin (HSA) binding by high performance affinity chromatography (HPAC); format: in vitro ADME; settings: Chiralpak HSA column
T1 construct: purchased Daicel H13H-2433
Method: Determination of Human Serum Albumin (HSA) Binding by High Performance Affinity Chromatography (HPAC)
HSA binding of the PSMA-addressing ligands was determined according to a previously published procedure via HPLC (Valko, K.; Nunhuck, S.; Bevan, C.; Abraham, M. H.; Reynolds, D. P. Journal of pharmaceutical sciences 2003, 92, 2236-2248). A Chiralpak HSA column (50×3 mm, 5 μm, H13H-2433, Daicel, Tokyo, Japan) was used at a constant flow rate of 0.5 mL/min at rt. Mobile phase A was a freshly prepared 50 mM aqueous solution of NH4OAc (pH 6.9) and mobile phase B was isopropanol (HPLC grade, VWR). The applied gradient for all experiments was 100% A (0 to 3 min), followed by 80% A (3 to 40 min). Prior to the experiment, the column was calibrated using nine reference substances with a HSA binding, known from literature, in the range of 13 to 99% (Valko, K.; Nunhuck, S.; Bevan, C.; Abraham, M. H.; Reynolds, D. P. Journal of pharmaceutical sciences 2003, 92, 2236-2248; Yamazaki, K.; Kanaoka, M. Journal of Pharmaceutical sciences 2004, 93, 1480-1494). All substances, including the examined PSMA ligands, were dissolved in a 1:1 mixture (v/v) of isopropanol and a 50 mM aqueous solution of NH4OAc (pH6.9) with a final concentration of 0.5 mg/mL. Non-linear regression was established with the OriginPro 2016G software (Northampton, United States) (FIG. 8).

[2] = Apparent molecular weight (MWapp)
[3] = tested on: LNCaP tumor-bearing male CB-17 SCID mice; assay: Biodistribution studies 24 h p.i.
Method: Approximately 3-7 MBq (0.1-0.2 nmol) of the radioactive-labelled PSMA inhibitors were injected into the tail vein of LNCaP tumor-bearing male CB-17 SCID mice and sacrificed after 24 h post injection. Selected organs were removed, weighted and measured in a γ-counter. Results are all decay corrected and given in % injected dose per gram of tissue (% iD/g). Tumor-to-organ ratios are calculated from animals' individual ratios and are given as mean±standard deviation.

PSMA = target: T2, PSMA (Homo sapiens, UniProt Q04609); assay: PSMA affinity (IC50), competition with [125I]I-BA-KuE on LNCaP cells; format: binding; settings: natLu complex, on ice 60 min, read-out: IC50
T2 construct: PSMA-positive LNCAP cells (300265; Cell Lines Service, Eppelheim, Germany); host or cells: LNCaP cells
T2 sequence (Q04609 whole entry): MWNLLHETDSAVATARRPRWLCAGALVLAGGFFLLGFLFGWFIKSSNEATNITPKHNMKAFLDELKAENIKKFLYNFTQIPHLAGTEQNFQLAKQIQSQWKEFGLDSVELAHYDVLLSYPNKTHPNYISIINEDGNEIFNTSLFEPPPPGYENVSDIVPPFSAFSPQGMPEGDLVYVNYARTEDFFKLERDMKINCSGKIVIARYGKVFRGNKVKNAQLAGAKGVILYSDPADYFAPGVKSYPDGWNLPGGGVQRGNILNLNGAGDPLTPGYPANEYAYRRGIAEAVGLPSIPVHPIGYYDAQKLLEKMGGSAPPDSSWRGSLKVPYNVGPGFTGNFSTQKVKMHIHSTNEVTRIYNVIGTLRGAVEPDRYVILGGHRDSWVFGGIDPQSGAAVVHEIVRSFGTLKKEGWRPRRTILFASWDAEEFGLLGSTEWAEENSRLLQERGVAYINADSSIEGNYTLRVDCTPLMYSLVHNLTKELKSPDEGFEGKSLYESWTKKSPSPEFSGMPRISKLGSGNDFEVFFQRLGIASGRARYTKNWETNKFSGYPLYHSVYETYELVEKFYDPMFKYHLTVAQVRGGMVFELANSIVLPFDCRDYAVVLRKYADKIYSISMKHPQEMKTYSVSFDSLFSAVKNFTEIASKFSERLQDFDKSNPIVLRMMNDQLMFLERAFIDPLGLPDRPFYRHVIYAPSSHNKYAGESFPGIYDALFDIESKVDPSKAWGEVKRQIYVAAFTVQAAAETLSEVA
Method: A mixture of trypsin and EDTA (0.05%, 0.02%) in PBS (Biochrom) was used in order to harvest cells. Cells were counted with a Neubauer hemocytometer (Paul Marienfeld, Lauda-Königshofen, Germany).
Affinity Determinations (IC50)
In the case of metal-complexed ligands, the crude reaction mixture was diluted analogously, without further purification. Cells were harvested 24±2 hours prior to the experiment and seeded in 24-well plates (1.5×10^5 cells in 1 mL/well). […] The media of both steps were combined in one fraction and represent the amount of free radioligand. Afterwards, the cells were lysed with 250 μL of 1 M aqueous NaOH for at least 10 min. After a washing step (250 μL of 1 M NaOH), both fractions, representing the amount of bound ligand, were united. Quantification of all collected fractions was accomplished in a γ-counter. PSMA-affinity determinations were carried out at least three times per ligand.

[4] = Octanol-water partition coefficient (log D7.4); format: physicochemical; settings: PBS pH 7.4 / n-octanol, 177Lu-labelled
Method: Octanol-Water Partition Coefficient (log D7.4)
Approximately 1 MBq of the labelled tracer was dissolved in 1 mL of a 1:1 mixture (v/v) of PBS (pH 7.4) and n-octanol in a reaction vial (1.5 mL). After vigorous mixing of the suspension for 3 minutes at room temperature, the vial was centrifuged at 15000 g for 3 minutes (Biofuge 15, Heraus Sepatech, Osterode, Germany) and 100 μL aliquots of both layers were measured in a gamma counter. The experiment was repeated at least six times.

LNCaP cells = assay: Internalization studies in LNCaP cells; format: cell-based; settings: 37° C., 60 min
Method: PSMA-positive LNCAP cells (300265; Cell Lines Service, Eppelheim, Germany) were cultivated in Dulbecco modified Eagle medium/Nutrition Mixture F-12 with Glutamax (1:1) (DMEM-F12, Biochrom, Berlin, Germany) supplemented with fetal bovine serum (10%, FBS Zellkultur, Berlin, Germany) and kept at 37° C. in a humidified CO2 atmosphere (5%). A mixture of trypsin and EDTA (0.05%, 0.02%) in PBS (Biochrom) was used in order to harvest cells. Cells were counted with a Neubauer hemocytometer (Paul Marienfeld, Lauda-Königshofen, Germany).
For internalization studies, LNCaP cells were harvested 24±2 hours before the experiment and seeded in poly-L-lysine coated 24-well plates (1.25×10^5 cells in 1 mL/well, Greiner Bio-One, Kremsmünster, Austria). After removal of the culture medium, the cells were washed once with 500 μL DMEM-F12 (5% BSA) and left to equilibrate for at least 15 min at 37° C. in […] DMEM-F12 (5% BSA). Each well was treated with either 25 μL of either DMEM-F12 (5% BSA, control) or 25 μL of a 100 μM PMPA (2-(Phosphonomethyl)-pentandioic acid, Tocris Bioscience, Bristol, UK) solution in PBS, for blockade. Next, 25 μL of the radioactive-labelled PSMA inhibitor (10.0 nM in DMEM-F12 (5% BSA)) was added and the cells were incubated at 37° C. for 60 min. The experiment was terminated by placing the 24-well plate on ice for 3 min and consecutive removal of the medium. Each well was carefully washed with 250 μL of ice-cold HBSS. Both fractions from the first steps, representing the amount of free radioligand, were combined. Removal of surface bound activity was accomplished by incubation of the cells with 250 μL of ice-cold PMPA (10 μM in PBS) solution for 5 min and rinsed again with another 250 μL of ice-cold PBS. The internalized activity was determined by incubation of the cells in 250 μL […] aqueous NaOH for at least 10 min. The obtained fractions were combined with those of the subsequent wash step with 250 μL 1 M aqueous NaOH. Each experiment (control and blockade) was performed in triplicate. Free, surface bound and internalized activity was quantified in a y-counter. All internalization studies were accompanied by external reference studies, using ([^125I]I-BA)KuE (c=0.2 nM), which were performed analogously. Data were corrected for non-specific binding and normalized to the specific-internalization observed for the radioiodinated reference compound.

T1 sequence (P02768 25-609): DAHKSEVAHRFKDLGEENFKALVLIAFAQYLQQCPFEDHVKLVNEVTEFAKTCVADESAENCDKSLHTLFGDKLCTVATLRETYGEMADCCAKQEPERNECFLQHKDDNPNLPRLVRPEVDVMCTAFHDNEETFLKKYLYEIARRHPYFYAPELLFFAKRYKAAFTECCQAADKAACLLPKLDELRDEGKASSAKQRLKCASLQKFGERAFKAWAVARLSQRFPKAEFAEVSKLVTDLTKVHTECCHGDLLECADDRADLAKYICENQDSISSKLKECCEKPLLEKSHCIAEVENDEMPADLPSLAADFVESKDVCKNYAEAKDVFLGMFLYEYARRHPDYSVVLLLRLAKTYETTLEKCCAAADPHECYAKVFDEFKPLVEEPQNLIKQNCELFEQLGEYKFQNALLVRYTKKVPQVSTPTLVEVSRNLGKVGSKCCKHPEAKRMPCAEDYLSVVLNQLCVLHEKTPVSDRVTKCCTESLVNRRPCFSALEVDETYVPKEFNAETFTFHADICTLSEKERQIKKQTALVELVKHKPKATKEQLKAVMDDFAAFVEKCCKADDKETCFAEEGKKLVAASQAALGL

Compound: CC(C)(C)[Si](F)(c1ccc(C(=O)NC[C@@H](NC(=O)[C@@H](CCCNC(N)=O)NC(=O)CC[C@H](C(=O)O)N2CCN(CC(=O)O)CCN(CC(=O)O)CCN(CC(=O)O)CC2)C(=O)NCCCCCC(=O)NCCC[C@@H](NC(=O)CC[C@H](NC(=O)N[C@@H](CCC(=O)O)C(=O)O)C(=O)O)C(=O)O)cc1)C(C)(C)C [Compound 2C015]
- HSA (HPAC) [1]: 95.0%
- MWapp [2]: 18.9 kDa
- In vivo biodistribution (24 h p.i.) blood ([3]; Table 6): 0.0007 ± 0.0005 % iA/g
- In vivo biodistribution (24 h p.i.) kidney ([3]; Table 6): 2.23 ± 1.29 % iA/g
- In vivo biodistribution (24 h p.i.) tumor ([3]; Table 6): 8.98 ± 2.32 % iA/g
- uptake in adrenals ([3]; mean): 0.1013 % iD/g
- uptake in blood ([3]; mean): 0.0007 % iD/g
- uptake in bone ([3]; mean): 0.0223 % iD/g
- uptake in heart ([3]; mean): 0.0237 % iD/g
- uptake in intestine ([3]; mean): 0.1103 % iD/g
- uptake in kidney ([3]; mean): 2.2339 % iD/g
- uptake in liver ([3]; mean): 0.164 % iD/g
- uptake in lung ([3]; mean): 0.0468 % iD/g
- uptake in muscle ([3]; mean): 0.0062 % iD/g
- uptake in pancreas ([3]; mean): 0.0212 % iD/g
- uptake in parotid gl. ([3]; mean): 0.0674 % iD/g
- uptake in spleen ([3]; mean): 0.2671 % iD/g
- uptake in stomach ([3]; mean): 0.036 % iD/g
- uptake in submand. gl. ([3]; mean): 0.0389 % iD/g
- uptake in tumor ([3]; mean): 8.9821 % iD/g
- IC50 (PSMA): 3.99 ± 0.74 nM
- logD7.4 [4]: −3.40 ± 0.10
- Internalization (LNCaP cells; normalized to reference): 226 ± 10 % IBA

Compound: O=C(O)CC[C@H](NC(=O)N[C@@H](CCCCNC(=O)[C@H](Cc1ccc2ccccc2c1)NC(=O)[C@H]1CC[C@H](CNC(=O)CN2CCN(CC(=O)O)CCN(CC(=O)O)CCN(CC(=O)O)CC2)CC1)C(=O)O)C(=O)O [PSMA-617, reference compound]
- HSA (HPAC) [1]: 84.9%
- MWapp [2]: 13.7 kDa
- Kidneys (24 h) ([3]; Table 1): 9.8 ± 2.7 % iD/g
- Tumor (24 h) ([3]; Table 1): 11.6 ± 2.2 % iD/g
- T/K-ratio ([3]; tumor/kidney, Table 1): 1.24 ± 0.29
- IC50 (PSMA): 3.3 ± 0.2 nM
- logD7.4 [4]: −4.10
- Internalization (LNCaP cells; normalized to ([125I]I-BA)KuE): 203 ± 10 % IBA-KuE

Compound: PSMA-617 [reference compound]
- uptake in adrenals ([3]; mean): 0.1910 % iD/g
- uptake in blood ([3]; mean): 0.0056 % iD/g
- uptake in bone ([3]; mean): 0.0267 % iD/g
- uptake in heart ([3]; mean): 0.0119 % iD/g
- uptake in intestine ([3]; mean): 0.1185 % iD/g
- uptake in kidney ([3]; mean): 1.4421 % iD/g
- uptake in liver ([3]; mean): 0.1167 % iD/g
- uptake in lung ([3]; mean): 0.0393 % iD/g
- uptake in muscle ([3]; mean): 0.0092 % iD/g
- uptake in pancreas ([3]; mean): 0.0106 % iD/g
- uptake in spleen ([3]; mean): 0.0812 % iD/g
- uptake in stomach ([3]; mean): 0.0201 % iD/g
- uptake in tumor ([3]; mean): 7.4568 % iD/g
- tumor-to-organ ratio adrenals ([3]; n = 4, mean): 43.54
- tumor-to-organ ratio blood ([3]; n = 4, mean): 1423.84
- tumor-to-organ ratio bone ([3]; n = 4, mean): 471.67
- tumor-to-organ ratio heart ([3]; n = 4, mean): 704.01
- tumor-to-organ ratio intestine ([3]; n = 4, mean): 90.33
- tumor-to-organ ratio kidney ([3]; n = 4, mean): 5.85
- tumor-to-organ ratio liver ([3]; n = 4, mean): 91.22
- tumor-to-organ ratio lung ([3]; n = 4, mean): 210.40
- tumor-to-organ ratio muscle ([3]; n = 4, mean): 855.38
- tumor-to-organ ratio pancreas ([3]; n = 4, mean): 798.52
- tumor-to-organ ratio spleen ([3]; n = 4, mean): 93.28
- tumor-to-organ ratio stomach ([3]; n = 4, mean): 375.80
